Like-named read-outs stand apart in the source and are kept apart here.

What is called LD50 is the dose at which mortality reaches 50%. Higher therefore signals a less toxic substance. As usually defined, the EC50 is the concentration that produces a half-maximal response.

A short description of series [1]: Acute toxicity in mice after oral administration. The series is classed as in vivo. The settings on record: mouse, in vivo, po, dose of 250 mg/kg, observation time 14 days. Here is the method:
(§1) The acute toxicity of the test compounds was determined on groups of 6 to 10 mice after oral administration of a dose of 250 mg/kg (observation time: 14 days). For this purpose, the substances were suspended in 2% methyl cellulose, some water was subsequently added and the test substance was administered to the conscious animals by esophageal tube.

The next series has as its system mice. As to the kind of experiment: Acute toxicity in mice after oral administration. The format is in vivo. The settings on record: 250 mg/kg p.o., observation time 14 days. Here is the method:
as §1

Series [2] relates to thrombocyte aggregation (platelet-rich plasma of healthy test persons). The series can be described thus: Collagen-induced thrombocyte (platelet) aggregation in platelet-rich plasma, method of Born and Cross. The format is cell-based, human. The note with it: sodium citrate, 10 minutes incubation at 37° C., read-out: EC50 (50% change in optical density, inhibition of collagen-induced aggregation). Here is the method:
Thrombocyte aggregation was measured according to the method of Born and Cross [J. Physiol. 170, 397 (1964)]in platelet-rich plasma of healthy test persons. To inhibit coagulation, the blood was mixed with sodium citrate in a volume ration of 1:10.
After addition of the aggregation-inducing substance, the rate of decrease in optical density of the platelet suspension is measured photometrically and recorded. The rate of aggregation was determined from the angle of inclination of the density curve. The point on the curve at which there was the greatest translucence served for calculating the optical density.
The quantity of collagen was chosen as small as possible, but sufficient so that an irreversible reaction was obtained. Commercial collagen of Hormonchemie, Munich, was used. Before the collagen was added, the plasma was incubated for 10 minutes with the test substance at 37° C.
An EC50 corresponding to a 50% change in the optical density with respect to aggregation inhibition was calculated graphically from the measurement values obtained.

As for `CCCSc1ncnc2c(N3CC[S+]([O-])CC3)nc(NCCO)nc12` [A, 2-(2-Hydroxyethyl-amino)-4-(1-oxido-thiomorpholino)-8-propylthio-pyrimido[5,4-d]pyrimidine], the LD50 at 336 h in series [1] was above 250 mg/kg. Further, the “animals died (out of animals tested)” value in the series on mice is on record as 0 out of 6. For the same compound, in series [2] (Homo sapiens, 10 min), the EC50 was 310 nM.

With `[O-][S+]1CCN(c2nc(NCCO)nc3c(SC4CCCCC4)ncnc23)CC1` [B, 8-Cyclohexylthio-2-(2-hydroxyethyl-amino)-4-(1-oxido-thiomorpholino)-pyrimido[5,4-d]pyrimidine], in series [1], the LD50 at 336 h is above 250 mg/kg. Besides, in the series with mice, the “animals died (out of animals tested)” value was 0 out of 10. Moreover, the EC50 in series [2] (Homo sapiens, 10 min) is 48 nM.

In turn, `[O-][S+]1CCN(c2nc(NCCO)nc3c(SCc4ccccc4)ncnc23)CC1` [C, 8-Benzylthio-2-(2-hydroxyethyl-amino)-4-(1-oxido-thiomorpholino)-pyrimido[5,4-d]pyrimidine] returned an LD50 at 336 h in series [1] above 250 mg/kg. Further, the “animals died (out of animals tested)” value in the series with mice is 0 out of 10. For the same compound, in series [2] (Homo sapiens, 10 min), the EC50 was 21 nM.

Take `COCCN(CCO)c1nc(N2CC[S+]([O-])CC2)c2ncnc(SCc3ccccc3)c2n1` [Compound E, 8-Benzylthio-2-[N-(2-hydroxy-ethyl)-N-(2-methoxyethyl)-amino]-4-(1-oxido-thiomorpholino)-pyrimido[5,4-d]pyrimidine]: in series [1], the LD50 at 336 h was above 250 mg/kg. Moreover, the “animals died (out of animals tested)” value in the series on mice is 0 out of 10. The EC50 in series [2] (Homo sapiens, 10 min) worked out at 52 nM.

`[O-][S+]1CCN(c2nc(N(CCO)CCO)nc3c(SCc4ccccc4)ncnc23)CC1` [D, 8-Benzylthio-2-diethanolamino-4-(1-oxido-thiomorpholino)pyrimido[5,4-d]pyrimidine] returned an LD50 at 336 h in series [1] above 250 mg/kg. For the same compound, the “animals died (out of animals tested)” value in the series on mice is listed as 0 out of 10. The EC50 in series [2] (Homo sapiens, 10 min) came out at 62 nM.

Consider `CSc1ccc(C(C)Sc2ncnc3c(N4CC[S+]([O-])CC4)nc(NCCO)nc23)cc1` (stereo not drawn) [F, 2-(2-Hydroxyethyl-amino)-8-(α-methyl-4-methylthiobenzylthio)-4-(1-oxido-thiomorpholino)-pyrimido[5,4-d]pyrimidine], for which, in series [1], the 50% lethal dose (LD50) at 336 h was above 250 mg/kg. Besides, the “animals died (out of animals tested)” value with mice was 0 out of 6. For the same compound, the EC50 in series [2] (Homo sapiens, 10 min) was found to be 29 nM.

Compound `[O-][S+]1CCN(c2nc(NCCO)nc3c(SCc4ccco4)ncnc23)CC1` [G, 8-Furfurylthio-2-(2-hydroxyethyl-amino)-4-(1-oxidothiomorpholino)-pyrimido[5,4-d]pyrimidine] returned an LD50 at 336 h in series [1] above 250 mg/kg. The “animals died (out of animals tested)” value in the series on mice was 0 out of 6. Also, the concentration for a half-maximal effect (EC50) in series [2] (Homo sapiens, 10 min) worked out at 52 nM.

On to `CCCCN(CC)c1ncnc2c(N3CC[S+]([O-])CC3)nc(NCCO)nc12` [H, 8-(N-Ethyl-butylamino)-2-(2-hydroxyethyl-amino)-4-(1-oxidothiomorpholino)-pyrimido[5,4-d]pyrimidine], for which the LD50 at 336 h in series [1] is above 250 mg/kg. Also, in the series with mice, the “animals died (out of animals tested)” value is on record as 0 out of 6. The EC50 in series [2] (Homo sapiens, 10 min) came to 300 nM.

For `CC(Nc1ncnc2c(N3CC[S+]([O-])CC3)nc(NCCO)nc12)c1ccccc1` [I, 2-(2-Hydroxyethyl-amino)-4-(1-oxido-thiomorpholino)-8-(L-1-phenylethyl-amino)-pyrimido[5,4-d]pyrimidine], in series [2], the EC50 worked out at 28 nM.

The compound `[O-][S+]1CCN(c2nc(NCCO)nc3c(NCc4ccc(Cl)cc4)ncnc23)CC1` [K, 8-(4-Chlorobenzyl-amino)-2-(2-hydroxyethyl-amino)-4-(1-oxido-thiomorpholino)-pyrimido[5,4-d]pyrimidine] showed an LD50 at 336 h in series [1] above 250 mg/kg. The “animals died (out of animals tested)” value in the series with mice is recorded as 0 out of 10. In series [2] (Homo sapiens, 10 min), the EC50 is 280 nM.

In the case of `[O-][S+]1CCN(c2nc(N(CCO)CCO)nc3c(N4CCCCC4)ncnc23)CC1` [L, 2-Diethanolamino-4-(1-oxido-thiomorpholino)-8-piperidino-pyrimido[5,4-d]pyrimidine], the LD50 at 336 h in series [1] was above 250 mg/kg. Further, the “animals died (out of animals tested)” value in the series with mice is 0 out of 10. Besides, the EC50 in series [2] (Homo sapiens, 10 min) came to 690 nM.

In series [1], `CC(C)CCOc1ncnc2c(N3CC[S+]([O-])CC3)nc(N(CCO)CCO)nc12` [M, 2-Diethanolamino-8-isopentoxy-4-(1-oxido-thiomorpholino)-pyrimido[5,4-d]pyrimidine] registered an LD50 at 336 h above 250 mg/kg. Besides, the “animals died (out of animals tested)” value with mice is reported as 0 out of 6. Also, in series [2] (Homo sapiens, 10 min), the EC50 is 460 nM.

Compound `[O-][S+]1CCN(c2nc(N(CCO)CCO)nc3c(OCc4ccccc4)ncnc23)CC1` [N, 8-Benzyloxy-2-diethanolamino-4-(1-oxido-thiomorpholino)-pyrimido[5,4-d]pyrimidine] displayed an LD50 at 336 h in series [1] above 250 mg/kg. Also, in the series on mice, the “animals died (out of animals tested)” value is on record as 0 out of 10. The EC50 in series [2] (Homo sapiens, 10 min) turned out to be 230 nM.

`COCCN(CCO)c1nc(N2CC[S+]([O-])CC2)c2ncnc(OCc3ccccc3)c2n1` [O, 8-Benzyloxy-2-[N-(2-hydroxy-ethyl)-N-(2-methoxy-ethyl)amino]-4-(1-oxido-thiomorpholino)-pyrimido[5,4-d]pyrimidine]: in series [1], the LD50 at 336 h is above 250 mg/kg. The “animals died (out of animals tested)” value in the series with mice is given as 0 out of 6. For the same compound, the EC50 in series [2] (Homo sapiens, 10 min) was found to be 300 nM.

`[O-][S+]1CCN(c2nc(N(CCO)CCO)nc3c(OCCCc4ccccc4)ncnc23)CC1` [P, 2-Diethanolamino-4-(1-oxido-thiomorpholino)-8-(3-phenylpropoxy)-pyrimido[5,4-d]pyrimidine] had an LD50 at 336 h in series [1] above 250 mg/kg. Besides, in the series with mice, the “animals died (out of animals tested)” value was 0 out of 6. Besides, the EC50 in series [2] (Homo sapiens, 10 min) was 360 nM.
